Assay results published in patent US20110020312A1, “METHODS FOR TREATMENT OF METABOLIC DISORDERS USING EPIMETABOLIC SHIFTERS, MULTIDIMENSIONAL INTRACELLULAR MOLECULES, OR ENVIRONMENTAL INFLUENCERS” (priority 2009, published 2011).

Columns and labels:
[1] = system: PC-3 cells; test: Nexin assay for apoptosis, 24 h Q10; type: cell-based; conditions: 50 μM and 100 μM Q10, 24 hours; increase less than in PaCa2
From the text: (§1) The 7AAD dye will enter into cells with permeabilized cell membranes; primarily those cells that are in late apoptosis. Annexin-V-PE is a dye that binds to Phosphotidyl serine, which is exposed on the outer surface of the plasma membrane in early apoptotic cells. The Nexin reagent thus can be used to differentiate between different populations of apoptotic cells in a flow cytometer.

[2] = system: HepG2 cells; test: Nexin assay for apoptosis, 24 h Q10; type: cell-based; conditions: 50 μM Q10, 24 hours
From the text: as §1

[3] = system: ATP Citrate Lyase (ACL); test: Western blot, ATP Citrate Lyase levels in normal and cancer cells; type: cell-based, human
Protocol: The whole cell pellets were resuspended one at a time in 1 mL of C7 buffer and transferred to labeled 15 mL tubes. The samples were then sonicated in the cold room on ice using 6 sonic pulses with the setting at #14. The samples were spun for a short time to 2500 g after sonication and the samples transferred to 2 ml tubes. The pH was verified of each sample (pH should be 9.0) using the foam remaining in the […] sample tubes.
After transfer each of the blots was placed in between 2 Whatman Filter papers and dried for 15-20 minutes. After drying the blots were labeled with the date, the type of samples and either blot 1 or blot 2 using a HB pencil. The molecular weight markers were outlined with the pencil and with single lines for the blue and a doublet for the colored markers. The blots were activated with methanol for 5 seconds, washed with water for 5 minutes, and TBST for 15 minutes. The blots were blocked for 1 hour with 5% blocking reagent in TBS-T at room temperature and then washed 3 times with TBS-T (1×-15′; 2×5′ each). Blot 1 was probed with the primary antibody for IDH1 (Cell Signaling #3997) in TBST with 5% BSA (at 1:1000 dilutions) and blot 2 with the rabbit polyclonal antibody for ATP Citrate Lyase in 5% BSA (Cell Signaling #4332) at 1:1000 dilution by incubation overnight at 4 deg C. with shaking. After the overnight incubation with primary antibodies, the blots were washed 3 times with TBS-T (1×-15′; 2×5′ each) and probed with the secondary antibody (antirabbit; 1:10,000 dilution) for 1 h on the orbital tilting shaker at room temperature. After 1 h of incubation with secondary antibodies, the blots were washed 3 times with TBS-T (1×-15′; 2×5′ each) and then incubated with ECF reagent for 5 mins and then each blot scanned with 5100 Fuji Laser scanner at 25 uM resolution, 16 bit, green laser, at 400V and at 500 V.
The samples were processed and run on a 4-12% Bis-Tris Novex NuPAGE gel as described above. The gels were run, transferred and stained essentially as described above.
The Isocitrate dehydrogenase blot was stripped by incubating for 30 minutes with methanol, followed by two 10 minute washes with TBS-T, then 30 minutes of incubation with stripping buffer at 50 deg C., and followed by two washes with 100 ml or more of TBS-T for 30′ each. The blot was scanned in laser scanner to check for complete stripping. The blot was activated with methanol for 5 seconds, washed with water for 5 minutes, and TBST for 15 minutes. The blot was blocked for 1 hour with 5% blocking reagent in TBS-T at room temperature and then washed 3 times with TBS-T (1×-15′; 2×5′ each). This was then probed with the rabbit polyclonal antibody for ATP Citrate Lyase in 5% BSA (Cell Signaling #4332) at 1:1000 dilution overnight at 4 deg C. with shaking. After the overnight incubation with primary antibody for ATP Citrate Lyase, the membrane was washed 3 times with TBS-T (1×-15′; 2×5′ each) and probed with the secondary antibody (antirabbit; 1:10,000 dilution) for 1 h on the orbital tilting shaker at room temperature. After 1 h of incubation with secondary antibodies, the blot was washed 3 times with TBS-T (1×-15′; 2×5′ each) and then incubated with ECF reagent for 5 minutes and then each blot scanned with 5100 Fuji Laser scanner at 25 uM resolution, 16 bit, green laser, at 400V and at 500 V.
In this experiment (western blot experiment 3), and in all of the experiments described below in this Example (i.e., western blot experiments 4 through 9), the cells were additionally treated with either 5 mM glucose (“5G”) or 22 mM glucose (“22G”). The samples derived from the cells were processed and run on a 4-12% Bis-Tris Novex NuPAGE gel as described above. The gels were run, transferred and stained essentially as described above.
The levels of IDH1, ATP citrate lyase and actin levels were determined by probing the blots with primary antibodies for IDH1, ATP citrate lyase and actin, essentially as described above.

[4] = system: Succinate Dehydrogenase (SDH) Subunit B; test: Western blot, Succinate Dehydrogenase B in mitochondrial preparations; type: cell-based; conditions: for Succinate Dehydrogenase B Average Normalized Volume: NCIE0808 Mitopreps
Protocol: The above blots were stripped by incubating for 30 minutes with methanol, followed by two 10 minute washes with TBS-T, then 30 minutes of incubation with Stripping buffer at 50 deg C., and followed by two washes with 100 ml or more of TBS-T for 30′ each. The blots were scanned in laser scanner to check for complete stripping. The blots were activated with methanol for 5 seconds, washed with water for 5 minutes, and TBST for 15 minutes. The blots were blocked for 1 hour with 5% blocking reagent in TBS-T at room temperature and then washed 3 times with TBS-T (1×-15′; 2×5′ each) and probed with the primary antibody for PKM2, SDHB or SDHC in 5% BSA in TBS-T by incubation overnight at 4 deg C. with gentle shaking. The primary antibody for SDHC (ABNOVA H00006391-MO2; antimouse) was at 1:500 dilution. The primary antibody for SDHB was from Abcam ab4714-200; antimouse; at 1:1000 dilution. The primary antibody for Pyruvate Kinase M2 (PKM2) was from Novus Biologicals H00005315-D0IP; antirabbit; at 1:500 dilution. After incubation with primary antibodies, the membranes were washed 3 times with TBS-T (1×-15′; 2×5′ each) and probed with the secondary antibody (SDHB & C antimouse; and PKM2 antirabbit; 1:10,000 dilution) for 1 h on the orbital tilting shaker at room temperature. After 1 h of incubation, the blots were washed 3 times with TBS-T (1×-15′; 2×5′ each) and incubated with ECF reagent for 5 minutes and then each blot scanned with 5100 Fuji Laser scanner at 25 uM resolution, 16 bit, green laser, at 400V and at 500 V.

`COC1=C(OC)C(=O)C(C/C=C(\C)CC/C=C(\C)CC/C=C(\C)CC/C=C(\C)CC/C=C(\C)CC/C=C(\C)CC/C=C(\C)CC/C=C(\C)CC/C=C(\C)CCC=C(C)C)=C(C)C1=O` [Q10, Coenzyme Q10] was tested, and the “early and late apoptotic population” value [1] was “increase in both early and late apoptotic population”, the “increase of gated population in late and early apoptotic stages” value [2] was “about 20%” and the “ATPCL Average Normalized Intensity” value ([3]; HDFa, HDF-50) was roughly 17500. The “ATPCL Average Normalized Intensity” value ([3]; HDFa, HDF-100) was roughly 25000, the ATP Citrate Lysase Normalized Intensity as % ([3]; HepG2, Hep5g48-50) was 85% and the ATP Citrate Lysase Normalized Intensity as % ([3]; HepG2, Hep5g48-100) was 79%. The ATP Citrate Lysase Normalized Intensity as % ([3]; HepG2, Hep22G48-50) was 129%, the ATP Citrate Lysase Normalized Intensity as % ([3]; HepG2, Hep22G48-100) was 209% and the “ATPCL Average Normalized Intensity” value ([3]; MCF-7, MCF-50) was roughly 7500. The “ATPCL Average Normalized Intensity” value ([3]; MCF-7, MCF-100) was roughly 12500, the ATP Citrate Lysase Normalized Intensity as % ([3]; PACA2, PACA5g48-50) was 68% and the ATP Citrate Lysase Normalized Intensity as % ([3]; PACA2, PACA5g48-100) was 42%. For the same compound, the ATP Citrate Lysase Normalized Intensity as % ([3]; PACA2, PACA22G48-50) was 112%, the ATP Citrate Lysase Normalized Intensity as % ([3]; PACA2, PACA22G48-100) was 174% and the “expression of ACL enzymes” value ([3]; cancer cells) was “dose-dependent decrease”. For the same compound, the “expression of ACL” value ([3]; normal cells) was “trend towards increased expression”, the “Succinate Dehydrogenase B Average Normalized Volume” value ([4]; 50 uM, 6 h) was 1077 and the “Succinate Dehydrogenase B Average Normalized Volume” value ([4]; 100 uM, 3 h) was 964. The “Succinate Dehydrogenase B Average Normalized Volume” value ([4]; 100 uM, 6 h) was 934 and the “SDH protein levels in the mitochondrion” value ([4]; mitochondrial preparations of cancer cells) was “increase”.
